The subject of assay [1] is SD rats. In words: Gastric ulcer model (diclofenac-induced ulcer in gastric corpus). Conditions: 1 hour before diclofenac 40 mg/kg oral, measured 6 hours after diclofenac. In kind it is in vivo. The protocol:
A test compound was suspended in a 0.5% methyl cellulose (MC) solution to prepare a chemical liquid having a concentration 5 ml/kg; and this was orally administered to SD rats (n=12 in each group). The test compound was controlled to be 10 mg/kg or 30 mg/kg. A control group was separately prepared, in which 5 ml/kg of the 0.5% MC solution was orally administered to the rats. After 1 hour, 40 mg/kg of NSAID, diclofenac (by Sigma) was orally administered to all rats of all groups, as a suspension in 0.5% MC solution (5 ml/kg). In 6 hours after the diclofenac administration, the length of the ulcer formed in the gastric corpus was measured using a stereomicroscope (by Nikon) and a micrometer (by Olympus), and the data of 12 cases were averaged. The antiulceration potency (%) of the test compound was computed according to the following formula: Antiulceration Potency (%): [1−(mean ulcer length of compound-administered group/mean ulcer length of 0.5% MC-administered group)]×100.

Assay [2] concerns SD rats. Nature of the assay: Small intestine ulcer model (indomethacin-induced ulcer). In kind it is in vivo. The following applies: 10 mg/kg oral, 1 hour before and 9 hours after indomethacin 10 mg/kg oral, measured after 24 hours. The protocol:
A test compound was suspended in a 0.5% methyl cellulose (MC) solution to prepare a chemical liquid having a concentration 5 ml/kg; and this was orally administered to SD rats (n=10 in each group). The test compound was controlled to be 10 mg/kg in every case. A control group was separately prepared, in which 5 ml/kg of the 0.5% MC solution was orally administered to the rats. After 1 hour, 10 mg/kg of NSAID, indomethacin (by Sigma) was orally administered to the rats, as a suspension in 0.5% MC solution (5 ml/kg). In 9 hours after the indomethacin administration, the test compound was again orally administered to every rat in the same amount as previously; and after 24 hours, the area of the ulcer formed in the small intestine was measured using a stereomicroscope (by Nikon) and a micrometer (by Olympus), and the data of 10 cases were averaged. The antiulceration potency (%) of the test compound was computed according to the following formula: Antiulceration Potency (%): [1−(mean ulcer area of compound-administered group/mean ulcer area of 0.5% MC-administered group)]×100.

Assay [3] concerns the target T1, xanthine oxidase (derived from butter milk, by Sigma) (Bos taurus, UniProt P80457).
T1 construct: xanthine oxidase (derived from butter milk, by Sigma); purchased Sigma; host or cells: butter milk (natural source)
In words: Xanthine oxidase inhibiting activity (pterin fluorescence assay). In kind it is biochemical. The following applies: xanthine oxidase 0.03 units/ml, pterin 5 μM, room temperature. The procedure: A test compound was dissolved in DMSO (by Nacalai) to have a concentration of 10 mM, and then just before use, its concentration was adjusted to a desired one.
The xanthine oxidase inhibitory activity of the compound of the present invention was evaluated according to a partly modified method of a method described in a reference “Free Radic. Biol. Med. 6, 607-615, 1992”. Concretely, xanthine oxidase (derived from butter milk, by Sigma) was mixed with 50 mM phosphate buffer to be 0.03 units/ml, and applied to a 96-well plate in an amount of 50 μl/well. The test compound diluted to have a final concentration was added to the plate in an amount of 2 μl/well, and processed at room temperature for 20 minutes. Pterin (by Sigma) was added to it to have a final concentration of 5 μM in an amount of 50 μl/well, and reacted at room temperature for 10 minutes. Under a condition of excitation at 345 nm and emission at 390 nm (pterin is oxidized by xanthine oxidase to give isoxanthopterin, and under the condition it emits light), the sample was analyzed using a microplate reader sapphire (by Tacan).
The light emission by isoxanthopterin in the presence or absence of xanthine oxidase was defined as 0% inhibition and 100% inhibition, respectively, and the concentration (IC50) of the test compound for 50% inhibition was computed.

This is an account of results in US8426453B2 (Astellas Pharma Inc., priority 2006, dated 2013).

Bounds are passed on as bounds.

T1 sequence (P80457 whole entry): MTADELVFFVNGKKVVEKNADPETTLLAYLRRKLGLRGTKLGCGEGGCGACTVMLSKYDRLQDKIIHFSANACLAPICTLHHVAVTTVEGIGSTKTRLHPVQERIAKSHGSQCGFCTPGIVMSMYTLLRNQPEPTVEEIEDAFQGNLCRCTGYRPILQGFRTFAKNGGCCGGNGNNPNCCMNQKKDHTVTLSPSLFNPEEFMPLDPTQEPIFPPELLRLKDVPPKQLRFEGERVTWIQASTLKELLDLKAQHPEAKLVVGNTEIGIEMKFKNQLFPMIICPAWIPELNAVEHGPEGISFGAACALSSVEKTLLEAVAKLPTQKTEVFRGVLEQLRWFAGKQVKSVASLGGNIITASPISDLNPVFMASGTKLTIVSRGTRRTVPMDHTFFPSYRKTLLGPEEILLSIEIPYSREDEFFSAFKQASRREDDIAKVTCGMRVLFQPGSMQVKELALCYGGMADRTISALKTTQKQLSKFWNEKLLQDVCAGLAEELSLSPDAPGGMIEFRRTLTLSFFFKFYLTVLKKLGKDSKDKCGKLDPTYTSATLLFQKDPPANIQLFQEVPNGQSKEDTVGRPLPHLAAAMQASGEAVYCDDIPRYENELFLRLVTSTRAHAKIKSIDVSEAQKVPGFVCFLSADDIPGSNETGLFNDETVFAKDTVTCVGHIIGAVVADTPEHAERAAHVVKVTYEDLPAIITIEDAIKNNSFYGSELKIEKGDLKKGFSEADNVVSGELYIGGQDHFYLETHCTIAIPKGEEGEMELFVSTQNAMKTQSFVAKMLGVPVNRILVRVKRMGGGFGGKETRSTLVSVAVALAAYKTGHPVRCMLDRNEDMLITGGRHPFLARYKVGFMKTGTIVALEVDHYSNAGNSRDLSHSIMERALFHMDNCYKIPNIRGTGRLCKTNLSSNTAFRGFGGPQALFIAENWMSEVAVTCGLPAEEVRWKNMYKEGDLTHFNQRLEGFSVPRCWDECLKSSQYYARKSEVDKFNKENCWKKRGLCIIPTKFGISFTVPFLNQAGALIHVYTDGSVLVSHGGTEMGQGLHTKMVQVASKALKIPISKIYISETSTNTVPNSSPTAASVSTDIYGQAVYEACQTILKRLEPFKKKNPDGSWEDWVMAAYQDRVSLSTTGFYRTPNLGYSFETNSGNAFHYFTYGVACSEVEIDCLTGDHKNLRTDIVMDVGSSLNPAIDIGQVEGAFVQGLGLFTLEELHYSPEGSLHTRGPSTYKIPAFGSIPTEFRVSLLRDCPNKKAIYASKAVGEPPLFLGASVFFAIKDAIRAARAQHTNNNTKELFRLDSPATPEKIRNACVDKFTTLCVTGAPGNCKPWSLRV

For the molecule `Cc1nc(-c2ccc(-c3ccccc3)c(C#N)c2)sc1C(=O)O` [compound 237], in assay [1] (10 mg/kg oral), the “Antiulceration potency (inhibitory potency), mean ulcer length in gastric corpus vs 0.5% MC group” value is recorded as 32%. Moreover, the “Antiulceration potency (inhibitory potency), mean ulcer area in small intestine vs 0.5% MC group” value in assay [2] is given as 59%. This molecule registered a 50% inhibitory concentration (IC50) in assay [3] of at most 20 nM.

`N#Cc1ccc(-c2ccc(-c3cc(C(=O)O)ccn3)cc2C#N)cc1` [compound 143] returned an IC50 in assay [3] of at most 20 nM. Regarding `Cc1nc(-c2ccc(-c3ccc(OC(F)(F)F)cc3)c(C#N)c2)sc1C(=O)O` [compound 240], the half-maximal inhibitory concentration (IC50) in assay [3] is at most 20 nM. `Cc1ccc(-c2ccc(-n3cc(C(=O)O)cn3)cc2C#N)cc1` [compound 252] came in with an IC50 in assay [3] of at most 20 nM.

For the molecule `N#Cc1cc(-c2cc(C(=O)O)ccn2)ccc1-c1ccsc1` [compound 141], the IC50 in assay [3] was at most 20 nM. Consider `Cc1nc(-c2ccc(OCC(C)C)c(C#N)c2)sc1C(=O)O` [Compound A, 2-(3-cyano-4-isobutyloxyphenyl)-4-methyl-1,3-thiazole-5-carboxylic acid], for which, in assay [1] (30 mg/kg oral), the “Antiulceration potency (inhibitory potency), mean ulcer length in gastric corpus vs 0.5% MC group” value worked out at 36%. Take `N#Cc1cc(-c2ccc(C(=O)O)s2)cc(F)c1OC1CCCC1` [Example 119]: in assay [3], the concentration for half-maximal inhibition (IC50) came out at 1.5 nM. Take `CC(C)(C)COc1ccc(-n2cc(C(=O)O)cn2)cc1C#N` [Compound B, 1-(3-cyano-4-neopentyloxyphenyl)-1H-pyrazole-4-carboxylic acid]: the “Antiulceration potency (inhibitory potency), mean ulcer length in gastric corpus vs 0.5% MC group” value in assay [1] (30 mg/kg oral) stood at 43%. `Cc1cccc(-c2ccc(-c3nc(C)c(C(=O)O)s3)cc2C#N)c1` [compound 243]: the IC50 in assay [3] is at most 20 nM. In the case of `N#Cc1cc(-c2cc(C(=O)O)ccn2)ccc1-n1ncc2ccccc21` [compound 179], the concentration for half-maximal inhibition (IC50) in assay [3] is at most 20 nM.

As for `N#Cc1cc(-c2ncc(C(=O)O)s2)ccc1-c1ccccc1` [compound 250], in assay [2], the “Antiulceration potency (inhibitory potency), mean ulcer area in small intestine vs 0.5% MC group” value was 73%. Moreover, the half-inhibitory concentration (IC50) in assay [3] is at most 20 nM. Consider `Oc1ncnc2[nH]ncc12` [allopurinol, reference compound], for which, in assay [1] (30 mg/kg oral), the “Antiulceration potency (inhibitory potency), mean ulcer length in gastric corpus vs 0.5% MC group” value is listed as “no inhibitory potency was confirmed”. The “Antiulceration potency (inhibitory potency), mean ulcer area in small intestine vs 0.5% MC group” value in assay [2] was “no inhibitory potency was confirmed”.

For the molecule `N#Cc1cc(-n2cc(C(=O)O)cn2)ccc1-c1ccccc1` [compound 251], the “Antiulceration potency (inhibitory potency), mean ulcer length in gastric corpus vs 0.5% MC group” value in assay [1] (30 mg/kg oral) was 43%. In addition, the “Antiulceration potency (inhibitory potency), mean ulcer area in small intestine vs 0.5% MC group” value in assay [2] is given as 41%. For the same molecule, the 50% inhibitory concentration (IC50) in assay [3] is at most 20 nM. Molecule `N#Cc1cc(-c2cc(C(=O)O)ccn2)ccc1-c1ccc2c(c1)OCO2` [compound 169] yielded an IC50 in assay [3] of at most 20 nM. Molecule `CC(C)(C)c1ccc(-c2ccc(-c3cc(C(=O)O)ccn3)cc2C#N)cc1` [compound 153] came in with a 50% inhibitory concentration (IC50) in assay [3] of at most 20 nM. The same measure, in the same setting: next, `COc1ccccc1-c1ccc(-c2cc(C(=O)O)ccn2)cc1C#N` [compound 138]: at most 20 nM; `N#Cc1cc(-c2cc(C(=O)O)ccn2)ccc1-c1ccc(F)cc1` [compound 133]: at most 20 nM; `CC(C)CSc1ccc(-c2cc(C(=O)O)ccn2)cc1C#N` [Example 53]: 2.5 nM. `N#Cc1cc(-c2cc(C(=O)O)ccn2)ccc1-c1ccco1` [compound 145] gave an IC50 in assay [3] of at most 20 nM. On the same count and under the same terms, next, `CC(C)COc1ccc(-c2cc(C(=O)O)ccn2)cc1C(F)(F)F` [Example 30]: 6.3 nM. With `N#Cc1cc(-c2cc(C(=O)[O-])ccn2)ccc1-c1ccccc1.[Na+]` [compound 8], the “Antiulceration potency (inhibitory potency), mean ulcer length in gastric corpus vs 0.5% MC group” value in assay [1] (30 mg/kg oral) was found to be 72%. In assay [2], the “Antiulceration potency (inhibitory potency), mean ulcer area in small intestine vs 0.5% MC group” value turned out to be 29%.

For the molecule `N#Cc1cc(-c2cc(C(=O)O)ccn2)ccc1-c1ccc(Oc2ccccc2)cc1` [compound 166], the IC50 in assay [3] is at most 20 nM.

The IC50 is the point on the concentration scale where inhibition reaches its midpoint.
